The subject of the experiment is rabbit platelet aggregation. The experiment can be described thus: Test for inhibition of rabbit platelet aggregation (ADP-induced, platelet-rich plasma, method of Born). The experiment is classed as cell-based, rabbit (New Zealand White-strain). Particulars: Oryctolagus cuniculus, ADP final concentration 5 μM, 37° C., 3 minutes preincubation, maximum aggregation within 5 minutes. Here is the method: Test Example [Test for inhibition of rabbit platelet aggregation]
New Zealand White-strain rabbits (groups of four rabbits each weighing 2.5-4.0 to kg) were tested. Blood was collected from the common carotid artery of the rabbits under on ether anesthesic, and mixed with 3.2to % sodium citrate in volume ratio of 9:1. The blood was centrifuged at 1,100 rpm for 15 minutes to give a platelet-rich plasma (PRP) as a supernatant.
Blood platelet aggregation was determined according to the method of Born [Nature, Vol. 194, p. 927 (1962)]. To 275 to μl of PRP was added 1 μl of a solution of various concentrations of a test compound dissolved in ethanol; the mixture was stirred at 1,000 rpm at 37° C. for 3 minutes; then, in this state, 25 μl of an aggregation-inducing agent [adenosine diphosphate (ADP), final concentration: 5 μM] was added thereto to induce platelet aggregation; and by using an aggregometer, there was determined the maximum aggregation rate (the maximum change in light transmission within 5 minutes from the induction of platelet aggregation).
The aggregatian inhibition rate of the test compound was calculated from the maximum aggregation rate in the presence test compound relative to the maximum aggregation rate when ethanol was used instead of the solution of the test compound; the IC50 value of the test compound was determined from the concentration response curve.

These results are taken from patent publication US5583158A, “Prostaglandin E1 analogues” (Taisho Pharmaceutical Co., Ltd., priority 1992, dated 1996).

As a reminder, the IC50 is the concentration at which inhibition is half-maximal. Read a low IC50 as higher potency.

For the molecule `CCCC[C@@H](C)C[C@H](O)C#C[C@H]1[C@H](O)CC(=O)[C@@H]1CCCCOCC(=O)O` [Compound 2, (17R)-17,20-Dimethyl-13,14-didehydro-3-oxa-PGE1], inhibition was half-maximal at 0.66 nM (IC50).

In turn, `CCCCC(C)(C)C(O)C#C[C@H]1[C@H](O)CC(=O)[C@@H]1CCCCOCC(=O)OC` (stereo partly drawn) [Control D, reference compound] had an IC50 of 1520 nM.

Take `CCCC[C@@H](C)C[C@H](O)C#C[C@H]1[C@H](O)CC(=O)[C@@H]1CCCCOCC(=O)OC` [Compound 1, (17R)-17,20-Dimethyl-13,14-didehydro-3-oxa-PGE1 methyl ester]: the midpoint of inhibition, the IC50, lay at 0.6 nM. Against the preceding molecule, the IC50 is about 2500-fold lower.

`COC(=O)CSCCCC[C@H]1C(=O)C[C@@H](O)[C@@H]1C#C[C@@H](O)C[C@@H](C)CCC=C(C)C` [Compound 3, (17S)-20-Isopropylidene-17-methyl-13, 14-didehydro-3-thia-PGE1 methyl ester] registered an IC50 of 0.39 nM. Compared with the last molecule, the IC50 is about 1.5-fold lower.

Regarding `COC(=O)COCCCC[C@H]1C(=O)C[C@@H](O)[C@@H]1C#C[C@@H](O)C[C@H](C)CCC=C(C)C` [Compound 5, (17R)-20-Isopropylidene-17-methyl-13, 14-didehydro-3-oxa-PGE1 methyl ester], the IC50 turned out to be 0.67 nM.

In the case of `CC(C)=CCC[C@H](C)C[C@H](O)C#C[C@H]1[C@H](O)CC(=O)[C@@H]1CCCCSCC(=O)O` [Compound 4, (17S)-20-Isopropylidene-17-methyl-13,14-didehydro-3-thia-PGE1], half-maximal inhibition (IC50) was put at 0.26 nM. This IC50 lies about 2.6-fold lower than the previous one.

Turning to `COC(=O)COCCCC[C@H]1C(=O)C[C@@H](O)[C@@H]1C#C[C@@H](O)CC1CCCCC1` [Control B, reference compound], inhibition was half-maximal at 134 nM (IC50). This IC50 lies about 520-fold higher than the previous one.

Take `CC(C)=CCC[C@@H](C)C[C@H](O)C#C[C@H]1[C@H](O)CC(=O)[C@@H]1CCCCOCC(=O)O` [Compound 6, (17R)-20-Isopropylidene-17-methyl-13, 14-didehydro-3-oxa-PGE1]: half-maximal inhibition (IC50) required 1.27 nM.

The molecule `CCCCC(C)[C@H](O)C#C[C@H]1[C@H](O)CC(=O)[C@@H]1CCCCSCC(=O)O` (stereo partly drawn) [Control C, reference compound] showed an IC50 of 911 nM.
